Legend:
Type in all cases: functional, cell-based
[1] = target: T1, Solute carrier family 22 member 11 (Homo sapiens, UniProt Q9NSA0); experiment: TP_TRANSPORTER: inhibition of E1S uptake (E1S: 0.05 uM, Minocycline: 50 uM) in OAT4-expressing S2 cells; settings: mouse, s2, 50 µM
T1 sequence (Q9NSA0 whole entry): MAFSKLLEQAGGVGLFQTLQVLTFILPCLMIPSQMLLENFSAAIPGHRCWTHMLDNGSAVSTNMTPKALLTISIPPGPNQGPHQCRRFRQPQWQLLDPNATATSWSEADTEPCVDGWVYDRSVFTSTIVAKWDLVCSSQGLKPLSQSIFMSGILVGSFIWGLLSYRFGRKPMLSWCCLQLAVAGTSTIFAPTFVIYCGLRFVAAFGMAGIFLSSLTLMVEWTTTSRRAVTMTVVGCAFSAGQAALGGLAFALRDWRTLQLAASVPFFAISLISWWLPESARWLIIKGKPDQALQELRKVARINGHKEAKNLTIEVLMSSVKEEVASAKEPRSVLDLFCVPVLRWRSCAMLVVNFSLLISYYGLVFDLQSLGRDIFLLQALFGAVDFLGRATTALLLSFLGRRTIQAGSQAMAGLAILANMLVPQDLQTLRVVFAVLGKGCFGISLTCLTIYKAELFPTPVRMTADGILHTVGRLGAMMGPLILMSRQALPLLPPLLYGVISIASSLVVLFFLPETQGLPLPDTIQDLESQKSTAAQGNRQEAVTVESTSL

[2] = target: T2, Organic anion transporter 3 (Homo sapiens, UniProt Q8TCC7); experiment: TP_TRANSPORTER: inhibition of E1S uptake (E1S: 0.05 uM, Minocycline: 50 uM) in OAT3-expressing S2 cells; settings: s2, 50 µM
T2 sequence (Q8TCC7 whole entry): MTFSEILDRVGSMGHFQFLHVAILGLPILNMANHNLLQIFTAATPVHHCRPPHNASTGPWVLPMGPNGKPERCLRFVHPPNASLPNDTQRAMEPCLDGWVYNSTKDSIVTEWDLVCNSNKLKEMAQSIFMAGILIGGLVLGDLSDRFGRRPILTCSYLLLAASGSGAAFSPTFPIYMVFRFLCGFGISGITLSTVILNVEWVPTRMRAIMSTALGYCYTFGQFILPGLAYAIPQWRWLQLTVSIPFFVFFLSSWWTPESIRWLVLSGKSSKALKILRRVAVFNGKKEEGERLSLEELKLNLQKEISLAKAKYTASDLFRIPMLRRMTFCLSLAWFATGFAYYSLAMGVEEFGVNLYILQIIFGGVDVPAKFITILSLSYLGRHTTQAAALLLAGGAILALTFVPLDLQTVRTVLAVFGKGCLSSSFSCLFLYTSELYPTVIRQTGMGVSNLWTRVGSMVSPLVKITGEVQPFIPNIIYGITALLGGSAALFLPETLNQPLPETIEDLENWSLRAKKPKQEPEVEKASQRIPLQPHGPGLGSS

[3] = target: T3, Solute carrier family 22 member 7 (Homo sapiens, UniProt Q9Y694); experiment: TP_TRANSPORTER: inhibition of PGF2alpha uptake (PGF2alpha: 0.005 uM, Minocycline: 5 uM) in OAT2-expressing S2 cells; settings: s2, 5 µM
T3 sequence (Q9Y694 whole entry): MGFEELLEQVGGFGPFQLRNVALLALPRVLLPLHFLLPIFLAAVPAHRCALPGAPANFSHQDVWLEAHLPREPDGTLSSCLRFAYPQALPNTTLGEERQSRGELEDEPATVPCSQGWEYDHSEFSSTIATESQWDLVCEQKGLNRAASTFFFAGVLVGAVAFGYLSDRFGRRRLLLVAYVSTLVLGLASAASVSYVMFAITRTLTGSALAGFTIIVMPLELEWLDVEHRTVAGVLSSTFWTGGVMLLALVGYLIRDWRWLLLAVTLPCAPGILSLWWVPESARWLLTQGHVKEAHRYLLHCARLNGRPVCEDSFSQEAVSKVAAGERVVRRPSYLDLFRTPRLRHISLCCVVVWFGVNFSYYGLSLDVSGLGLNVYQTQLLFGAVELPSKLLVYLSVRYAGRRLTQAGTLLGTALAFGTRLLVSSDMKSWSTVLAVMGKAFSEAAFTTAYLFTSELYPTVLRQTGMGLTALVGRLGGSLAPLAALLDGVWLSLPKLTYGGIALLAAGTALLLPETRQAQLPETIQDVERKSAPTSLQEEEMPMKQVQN

[4] = target: T4, Solute carrier family 22 member 6 (Homo sapiens, UniProt Q4U2R8); experiment: TP_TRANSPORTER: inhibition of PAH uptake (PAH: 5 uM, Minocycline: 500 uM) in OAT1-expressing S2 cells; settings: s2, 500 µM
T4 sequence (Q4U2R8 whole entry): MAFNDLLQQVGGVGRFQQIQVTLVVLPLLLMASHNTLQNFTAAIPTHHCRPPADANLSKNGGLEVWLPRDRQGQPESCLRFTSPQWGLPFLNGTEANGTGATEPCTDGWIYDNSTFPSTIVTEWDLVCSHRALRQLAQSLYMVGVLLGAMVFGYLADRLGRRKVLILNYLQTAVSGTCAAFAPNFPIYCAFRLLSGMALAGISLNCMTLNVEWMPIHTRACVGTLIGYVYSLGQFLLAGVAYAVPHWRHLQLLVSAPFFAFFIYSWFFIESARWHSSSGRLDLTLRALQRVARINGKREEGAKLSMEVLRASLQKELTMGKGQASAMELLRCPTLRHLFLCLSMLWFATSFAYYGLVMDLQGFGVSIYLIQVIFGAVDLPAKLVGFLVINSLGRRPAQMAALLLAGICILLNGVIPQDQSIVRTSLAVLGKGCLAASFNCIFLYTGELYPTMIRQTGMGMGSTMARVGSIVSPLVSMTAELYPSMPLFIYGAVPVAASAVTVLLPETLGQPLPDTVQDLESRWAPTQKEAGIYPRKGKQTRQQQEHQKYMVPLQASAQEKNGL

[5] = target: T2, Organic anion transporter 3; experiment: TP_TRANSPORTER: inhibition of E1S uptake (E1S: 0.05 uM, Tetracycline: 50 uM) in OAT3-expressing S2 cells; settings: mouse, s2, 50 µM
[6] = target: T1, Solute carrier family 22 member 11; experiment: TP_TRANSPORTER: inhibition of E1S uptake (E1S: 0.05 uM, Tetracycline: 50 uM) in OAT4-expressing S2 cells; settings: mouse, s2, 50 µM
[7] = target: T4, Solute carrier family 22 member 6; experiment: TP_TRANSPORTER: inhibition of PAH uptake (PAH: 5 uM, Tetracycline: 1000 uM) in OAT1-expressing S2 cells; settings: s2, 1000 µM
[8] = target: T3, Solute carrier family 22 member 7; experiment: TP_TRANSPORTER: inhibition of PGF2alpha uptake (PGF2alpha: 0.005 uM, Tetracycline: 5 uM) in OAT2-expressing S2 cells; settings: mouse, s2, 5 µM
[9] = target: T1, Solute carrier family 22 member 11; experiment: TP_TRANSPORTER: inhibition of E1S uptake (E1S: 0.05 uM, Doxycycline: 50 uM) in OAT4-expressing S2 cells; settings: mouse, s2, 50 µM
[10] = target: T4, Solute carrier family 22 member 6; experiment: TP_TRANSPORTER: inhibition of PAH uptake (PAH: 5 uM, Doxycycline: 500 uM) in OAT1-expressing S2 cells; settings: s2, 500 µM
[11] = target: T2, Organic anion transporter 3; experiment: TP_TRANSPORTER: inhibition of E1S uptake (E1S: 0.05 uM, Doxycycline: 50 uM) in OAT3-expressing S2 cells; settings: s2, 50 µM
[12] = target: T1, Solute carrier family 22 member 11; experiment: TP_TRANSPORTER: inhibition of E1S uptake (E1S: 0.05 uM, Oxytetracycline: 50 uM) in OAT4-expressing S2 cells; settings: mouse, s2, 50 µM
[13] = target: T4, Solute carrier family 22 member 6; experiment: TP_TRANSPORTER: inhibition of PAH uptake (PAH: 5 uM, Oxytetracycline: 500 uM) in OAT1-expressing S2 cells; settings: mouse, s2, 500 µM
[14] = target: T2, Organic anion transporter 3; experiment: TP_TRANSPORTER: inhibition of E1S uptake (E1S: 0.05 uM, Oxytetracycline: 50 uM) in OAT3-expressing S2 cells; settings: s2, 50 µM
[15] = target: T3, Solute carrier family 22 member 7; experiment: TP_TRANSPORTER: inhibition of PGF2alpha uptake (PGF2alpha: 0.005 uM, Oxytetracycline: 5 uM) in OAT2-expressing S2 cells; settings: s2, 5 µM
[16] = substrate: CN(C)[C@@H]1C(O)=C(C(N)=O)C(=O)[C@@]2(O)C(O)=C3C(=O)c4c(O)cccc4[C@@](C)(O)[C@H]3C[C@@H]12; experiment: TP_TRANSPORTER: uptake in OAT3-expressing S2 cells
[17] = substrate: CN(C)[C@@H]1C(O)=C(C(N)=O)C(=O)[C@@]2(O)C(O)=C3C(=O)c4c(O)cccc4[C@@](C)(O)[C@H]3C[C@@H]12; experiment: TP_TRANSPORTER: uptake in OAT2-expressing S2 cells
[18] = substrate: CN(C)[C@@H]1C(O)=C(C(N)=O)C(=O)[C@@]2(O)C(O)=C3C(=O)c4c(O)cccc4[C@@](C)(O)[C@H]3C[C@@H]12; experiment: TP_TRANSPORTER: uptake in OAT4-expressing S2 cells

CN(C)c1ccc(O)c2c1C[C@H]1C[C@H]3[C@H](N(C)C)C(O)=C(C(N)=O)C(=O)[C@@]3(O)C(O)=C1C2=O [MINOCYCLINE]
Activity [1]: is not an inhibitor [-] | Activity [2]: is not an inhibitor [-] | Activity [3]: inhibitor [(at a rough estimate) 80 % of control] | Activity [4]: inhibitor [(at a rough estimate) 10 % of control]

CN(C)[C@@H]1C(O)=C(C(N)=O)C(=O)[C@@]2(O)C(O)=C3C(=O)c4c(O)cccc4[C@@](C)(O)[C@H]3C[C@@H]12 [TETRACYCLINE]
Activity [5]: is not an inhibitor [-] | Activity [6]: inhibitor [(at a rough estimate) 75 % of control] | Activity [7]: inhibitor [(at a rough estimate) 45 % of control] | Activity [8]: inhibitor [(at a rough estimate) 85 % of control]

C[C@H]1c2cccc(O)c2C(=O)C2=C(O)[C@]3(O)C(=O)C(C(N)=O)=C(O)[C@@H](N(C)C)[C@@H]3[C@@H](O)[C@@H]21.O [DOXYCYCLINE]
Activity [9]: is not an inhibitor [-] | Activity [10]: inhibitor [(at a rough estimate) 25 % of control] | Activity [11]: is not an inhibitor [-]

CN(C)[C@@H]1C(O)=C(C(N)=O)C(=O)[C@@]2(O)C(O)=C3C(=O)c4c(O)cccc4[C@@](C)(O)[C@H]3[C@H](O)[C@@H]12 [OXYTETRACYCLINE]
Activity [12]: is not an inhibitor [-] | Activity [13]: inhibitor [(at a rough estimate) 20 % of control] | Activity [14]: is not an inhibitor [-] | Activity [15]: inhibitor [(at a rough estimate) 80 % of control]

B1: Organic anion transporter 3 (Homo sapiens) (protein)
chain: MTFSEILDRVGSMGHFQFLHVAILGLPILNMANHNLLQIFTAATPVHHCRPPHNASTGPWVLPMGPNGKPERCLRFVHPPNASLPNDTQRAMEPCLDGWVYNSTKDSIVTEWDLVCNSNKLKEMAQSIFMAGILIGGLVLGDLSDRFGRRPILTCSYLLLAASGSGAAFSPTFPIYMVFRFLCGFGISGITLSTVILNVEWVPTRMRAIMSTALGYCYTFGQFILPGLAYAIPQWRWLQLTVSIPFFVFFLSSWWTPESIRWLVLSGKSSKALKILRRVAVFNGKKEEGERLSLEELKLNLQKEISLAKAKYTASDLFRIPMLRRMTFCLSLAWFATGFAYYSLAMGVEEFGVNLYILQIIFGGVDVPAKFITILSLSYLGRHTTQAAALLLAGGAILALTFVPLDLQTVRTVLAVFGKGCLSSSFSCLFLYTSELYPTVIRQTGMGVSNLWTRVGSMVSPLVKITGEVQPFIPNIIYGITALLGGSAALFLPETLNQPLPETIEDLENWSLRAKKPKQEPEVEKASQRIPLQPHGPGLGSS
Km [16]: 566 µM

B2: Solute carrier family 22 member 7 (Homo sapiens) (protein)
chain: MGFEELLEQVGGFGPFQLRNVALLALPRVLLPLHFLLPIFLAAVPAHRCALPGAPANFSHQDVWLEAHLPREPDGTLSSCLRFAYPQALPNTTLGEERQSRGELEDEPATVPCSQGWEYDHSEFSSTIATESQWDLVCEQKGLNRAASTFFFAGVLVGAVAFGYLSDRFGRRRLLLVAYVSTLVLGLASAASVSYVMFAITRTLTGSALAGFTIIVMPLELEWLDVEHRTVAGVLSSTFWTGGVMLLALVGYLIRDWRWLLLAVTLPCAPGILSLWWVPESARWLLTQGHVKEAHRYLLHCARLNGRPVCEDSFSQEAVSKVAAGERVVRRPSYLDLFRTPRLRHISLCCVVVWFGVNFSYYGLSLDVSGLGLNVYQTQLLFGAVELPSKLLVYLSVRYAGRRLTQAGTLLGTALAFGTRLLVSSDMKSWSTVLAVMGKAFSEAAFTTAYLFTSELYPTVLRQTGMGLTALVGRLGGSLAPLAALLDGVWLSLPKLTYGGIALLAAGTALLLPETRQAQLPETIQDVERKSAPTSLQEEEMPMKQVQN
Km [17]: 440 µM

B3: Solute carrier family 22 member 11 (Homo sapiens) (protein)
chain: MAFSKLLEQAGGVGLFQTLQVLTFILPCLMIPSQMLLENFSAAIPGHRCWTHMLDNGSAVSTNMTPKALLTISIPPGPNQGPHQCRRFRQPQWQLLDPNATATSWSEADTEPCVDGWVYDRSVFTSTIVAKWDLVCSSQGLKPLSQSIFMSGILVGSFIWGLLSYRFGRKPMLSWCCLQLAVAGTSTIFAPTFVIYCGLRFVAAFGMAGIFLSSLTLMVEWTTTSRRAVTMTVVGCAFSAGQAALGGLAFALRDWRTLQLAASVPFFAISLISWWLPESARWLIIKGKPDQALQELRKVARINGHKEAKNLTIEVLMSSVKEEVASAKEPRSVLDLFCVPVLRWRSCAMLVVNFSLLISYYGLVFDLQSLGRDIFLLQALFGAVDFLGRATTALLLSFLGRRTIQAGSQAMAGLAILANMLVPQDLQTLRVVFAVLGKGCFGISLTCLTIYKAELFPTPVRMTADGILHTVGRLGAMMGPLILMSRQALPLLPPLLYGVISIASSLVVLFFLPETQGLPLPDTIQDLESQKSTAAQGNRQEAVTVESTSL
Km [18]: 123 µM
